From patent US20130289047A1, “HETEROARYLTHIO DERIVATIVES AND ANALOGUES” (EPIOMED THERAPEUTICS, INC., priority 2010, published 2013)

Assays:
5HT7 receptor = 5HT7 receptor (Homo sapiens, UniProt P34969); experiment: Competitive receptor binding, 5HT7 (radiolabeled LSD); settings: for inhibition at 0.1 µM: 100 nM, read-out: Percent inhibition of receptor binding at 100 nM, 5HT7 Receptor Binding
Method: (§1) A set of compounds were tested for their ability to inhibit binding of a binding ligand to the 5HT1A, 5HT1D, and 5HT7 receptors in a competitive assay. The tested compounds were placed in the assay with either radiolabeled OH-DPAT (which binds the 5HT1A receptor), radiolabeled serotonin (which binds the 5HT1D receptor), or radiolabeled LSD (lysergic acid diethylamide, which binds the 5HT7 receptor).

5HT1D receptor = 5HT1D receptor (Homo sapiens, UniProt P28221); experiment: Competitive receptor binding, 5HT1D (radiolabeled serotonin); settings: for inhibition at 0.1 µM: 100 nM, read-out: Percent inhibition of receptor binding at 100 nM, 5HT1D Receptor Binding
Method: as §1

5HT1A receptor = biological target: T1, 5HT1A receptor (Homo sapiens, UniProt P08908); experiment: Competitive receptor binding, 5HT1A (radiolabeled OH-DPAT); settings: for inhibition at 0.1 µM: 100 nM, read-out: Percent inhibition of receptor binding at 100 nM, 5HT1A Receptor Binding
T1 sequence (P08908 1-422): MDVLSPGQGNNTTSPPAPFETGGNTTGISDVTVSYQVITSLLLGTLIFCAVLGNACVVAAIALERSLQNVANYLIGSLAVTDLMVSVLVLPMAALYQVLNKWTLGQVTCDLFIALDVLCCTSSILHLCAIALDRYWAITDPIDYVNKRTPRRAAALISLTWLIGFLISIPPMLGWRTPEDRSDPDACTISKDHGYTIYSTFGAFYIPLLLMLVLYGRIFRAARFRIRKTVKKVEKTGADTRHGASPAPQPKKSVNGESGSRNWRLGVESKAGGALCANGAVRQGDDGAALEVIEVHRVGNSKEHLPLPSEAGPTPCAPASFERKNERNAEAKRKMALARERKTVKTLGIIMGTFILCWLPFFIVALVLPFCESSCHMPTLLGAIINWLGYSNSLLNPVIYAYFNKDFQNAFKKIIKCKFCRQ
Method: as §1

C57 male mice [1] = experiment: Condition Avoidance Responding (CAR, active avoidance) model, antipsychotic activity; assay type: in vivo; settings: 10 mg/kg subcutaneously 30 minutes before test session; C57 male mice tested 24 hours after training; FIG. 1
Method: The Condition Avoidance Responding (CAR, active avoidance) model is used as a test for antipsychotic activity. The disruption of avoidance (increased latency) without disruption of escape (extrapyramidal motor function) is a clinical predictor of compounds with antipsychotic activity. The compound of example 10 above (1-[3-(5-Pyridin-4-yl-[1,3,4]oxadiazol-2-ylsulfanyl)propyl]-4-(3-chlorophenyl)piperazine) was evaluated in this model as follows.
(§2) Training of animals (mice) consisted of 20 trials with variable inter-trial intervals (trained to 80% Avoidance Criteria). After a one-minute acclimation period, the house light and an acoustic 90 dB tone (conditioned stimuli) were presented. A response (crossing to a dark compartment) within 5 seconds ended the trial and the trial was recorded as avoidance response (CAR). […] To avoid shock, animals learn to move from the lighted side of the chamber to the dark side when the cue is presented (avoidance) or moved when the shock is administered (escape). Vehicle or test compounds were administered subcutaneously 30 minutes before the test session.
(§3) C57 male mice were tested 24 hours after being trained as described above.

C57 male mice [2] = experiment: Condition Avoidance Responding (CAR, active avoidance) model, memory; assay type: in vivo; settings: 10 mg/kg subcutaneously 30 minutes before test session; C57 male mice tested 24 hours after training; FIG. 2
Excerpt: The Condition Avoidance Responding (CAR, active avoidance) model, although primarily a test for detecting anti-psychotic activity, includes an element of training and learning (acquisition of memory), and thus can also be used as a model for testing a compound's effects on learning (acquisition of information) and memory (retention of information). A decrease in the latency of an animal's response indicates an enhancement of an animal's memory of the stimulus. The compound of example 12 above (1-[3-(1-Phenyl-1H-tetrazol-5-ylsulfanyl)propyl]-4-(3-chlorophenyl)piperazine) was evaluated in this model as follows.
as §2, §3

Chain of 5HT1D receptor (P28221 whole entry): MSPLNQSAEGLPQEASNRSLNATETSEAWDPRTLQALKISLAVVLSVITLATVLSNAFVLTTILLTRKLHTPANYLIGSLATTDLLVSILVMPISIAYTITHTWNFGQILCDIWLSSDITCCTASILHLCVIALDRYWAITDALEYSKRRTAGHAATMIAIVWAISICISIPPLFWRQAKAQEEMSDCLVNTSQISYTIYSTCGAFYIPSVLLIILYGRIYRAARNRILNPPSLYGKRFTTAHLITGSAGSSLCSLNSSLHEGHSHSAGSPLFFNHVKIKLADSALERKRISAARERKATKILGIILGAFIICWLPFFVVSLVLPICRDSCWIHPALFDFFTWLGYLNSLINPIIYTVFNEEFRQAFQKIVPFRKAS
Chain of 5HT7 receptor (P34969 whole entry): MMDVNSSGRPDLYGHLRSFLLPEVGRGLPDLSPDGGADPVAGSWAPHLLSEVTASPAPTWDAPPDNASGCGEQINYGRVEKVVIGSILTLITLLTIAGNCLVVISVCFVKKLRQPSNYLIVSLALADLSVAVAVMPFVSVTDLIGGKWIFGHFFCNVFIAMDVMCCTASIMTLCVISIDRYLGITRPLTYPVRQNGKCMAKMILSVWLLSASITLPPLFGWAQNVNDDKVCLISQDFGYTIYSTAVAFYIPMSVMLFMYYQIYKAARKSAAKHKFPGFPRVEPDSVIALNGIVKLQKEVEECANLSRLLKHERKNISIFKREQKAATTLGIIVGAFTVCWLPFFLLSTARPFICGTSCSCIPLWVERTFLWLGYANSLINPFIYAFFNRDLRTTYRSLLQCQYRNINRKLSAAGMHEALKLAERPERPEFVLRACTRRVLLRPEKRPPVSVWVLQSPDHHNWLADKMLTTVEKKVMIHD

Compound | inhibition at 0.1 µM (5HT7 receptor) | inhibition at 0.1 µM (5HT1D receptor) | inhibition at 0.1 µM (5HT1A receptor) | latency in CAR (antipsychotic activity) (C57 male mice [1]) | latency in CAR (memory) (C57 male mice [2]) | Percent inhibition of receptor binding at 100 nM, 5HT7 Receptor Binding (5HT7 receptor) | Percent inhibition of receptor binding at 100 nM, 5HT1D Receptor Binding (5HT1D receptor) | Percent inhibition of receptor binding at 100 nM, 5HT1A Receptor Binding (5HT1A receptor)
Cn1ccnc1SCCCN1CCN(c2nccc3occc23)CC1 [Example 38, 4-{4-[3-(1-Methyl-1H-imidazol-2-ylsulfanyl)propyl]piperazin-1-yl}furo[3,2-c]pyridine] | 81% |  | 71% |  |  |  |  | 
c1ccc(-n2nnnc2SCCCN2CCN(c3nccc4occc34)CC2)cc1 [Example 40, 4-{4-[3-(1-Phenyl-1H-tetrazol-5-ylsulfanyl)propyl]piperazin-1-yl}furo[3,2-c]pyridine] | 67% | 38% | 97% |  |  |  |  | 
c1cc(-c2nnc(SCCCN3CCN(c4nccc5occc45)CC3)o2)ccn1 [Example 42, 4-{4-[3-(5-Pyridin-4-yl-[1,3,4]oxadiazol-2-sulfanyl)propyl]piperazin-1-yl}furo[3,2-c]pyridine] |  |  |  |  |  | 21% | 65% | 96%

Continued, in another order:

inhibition at 0.1 µM (5HT7 receptor) | inhibition at 0.1 µM (5HT1D receptor) | inhibition at 0.1 µM (5HT1A receptor) | Compound | latency in CAR (antipsychotic activity) (C57 male mice [1]) | latency in CAR (memory) (C57 male mice [2]) | Percent inhibition of receptor binding at 100 nM, 5HT7 Receptor Binding (5HT7 receptor) | Percent inhibition of receptor binding at 100 nM, 5HT1D Receptor Binding (5HT1D receptor) | Percent inhibition of receptor binding at 100 nM, 5HT1A Receptor Binding (5HT1A receptor)
63% | 52% | 87% | Cn1ccnc1SCCN1CCN(c2cccc(C(F)(F)F)c2)CC1 [Example 1, 1-[2-(1-Methyl-1H-imidazol-2-ylsulfanyl)ethyl]-4-(3-trifluoromethylphenyl)piperazine] |  |  |  |  | 
25% | 10% | 92% | FC(F)(F)c1cccc(N2CCN(CCSc3nnc(-c4ccncc4)o3)CC2)c1 [Example 3, 1-[2-(5-Pyridin-4-yl-[1,3,4]oxadiazol-2-ylsulfanyl)ethyl]-4-(3-trifluoromethylphenyl)piperazine] |  |  |  |  | 
82% | 50% | 94% | Cn1ccnc1SCCCN1CCN(c2cccc(Cl)c2)CC1 [Example 8, 1-[3-(1-Methyl-1H-imidazol-2-ylsulfanyl)propyl]-4-(3-chlorophenyl)piperazine] |  |  |  |  | 
8% | 51% | 97% | Clc1cccc(N2CCN(CCCSc3nnc(-c4ccncc4)o3)CC2)c1 [Example 10, 1-[3-(5-Pyridin-4-yl-[1,3,4]oxadiazol-2-ylsulfanyl)propyl]-4-(3-chlorophenyl)piperazine] | statistically significant increase in latency |  |  |  | 
43% | 6% | 75% | Clc1cccc(N2CCN(CCCSc3nnnn3-c3ccccc3)CC2)c1 [Example 12, 1-[3-(1-Phenyl-1H-tetrazol-5-ylsulfanyl)propyl]-4-(3-chlorophenyl)piperazine] |  | statistically significant decrease in latency |  |  | 
